In assay [1] the target is T1, full length human IRAK4 protein (Homo sapiens, UniProt Q9NWZ3).
T1 construct: Purified full length human IRAK4 protein; purchased Signal Chem 112-10G-125
T1 sequence (Q9NWZ3 1-460): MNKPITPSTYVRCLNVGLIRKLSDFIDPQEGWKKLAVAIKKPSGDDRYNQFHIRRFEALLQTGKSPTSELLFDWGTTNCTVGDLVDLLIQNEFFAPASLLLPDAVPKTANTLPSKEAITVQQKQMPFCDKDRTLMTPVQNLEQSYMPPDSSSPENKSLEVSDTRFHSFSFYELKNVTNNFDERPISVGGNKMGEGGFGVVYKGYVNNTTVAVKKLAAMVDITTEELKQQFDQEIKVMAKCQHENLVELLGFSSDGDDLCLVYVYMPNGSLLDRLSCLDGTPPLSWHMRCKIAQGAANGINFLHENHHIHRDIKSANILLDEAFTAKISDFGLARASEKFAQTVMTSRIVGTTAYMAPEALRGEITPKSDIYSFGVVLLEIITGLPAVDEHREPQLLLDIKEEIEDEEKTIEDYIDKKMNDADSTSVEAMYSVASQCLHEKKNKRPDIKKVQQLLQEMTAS
Nature of the assay: IRAK4 Biochemical Assay (Promega ADP-Glo IRAK4 Kinase Enzyme System). Particulars: 3 nM enzyme, 2 μM MBP, 250 μM ATP, 60 min at room temperature, ADP-Glo luminescence. On the procedure: For the routine compound screening, an IRAK4 kinase assay was performed as follows using Promega ADP-Glo IRAK4 Kinase Enzyme System (Promega, Cat #2198-AD). Purified full length human IRAK4 protein (Signal Chem; Cat #112-10G-125) was diluted to a concentration 6 nM in assay buffer (25 mM MOPS, pH 7.2, 12.5 mM β-glycerol-phosphate, 25 mM MgCl2, 5 mM EGTA, 2 mM EDTA, 0.0025% Brij-35, add 0.25 mM DTT to Kinase Assay Buffer prior to use) containing IRAK4 inhibitor at 2× the final concentration in 0.4% DMSO. The reaction was performed in PerkinElmer Proxiplate-384 plus white plate (Fisher Scientific, Cat #50-905-2761) and started by the addition of an equal volume of the assay buffer containing 4 μM native swine myelin basic protein (MBP) and 500 μM ATP to achieve a final concentration of 3 nM enzyme, 2 μM MBP, 250 μM ATP, 1× compound, and 0.2% DMSO. The kinase reaction was allowed to run for 60 min at room temperature (25-27° C.), then 5 μL of ADP-Glo was added to the reaction in each well followed by 40 minutes-incubation at RT. To detect converted ATP, 10 μL Detection Buffer was added into each well and Incubate at RT in dark for 30 minutes. Finally, luminescence was read using Tecan with 1000 ms of integration time. The luminescent signal positively correlates with ADP amount and kinase activity. Data was analyzed by GraphPad Prism and IC50 was calculated using function log(inhibitor) vs. response—Variable slope (four parameters). Percentage of inhibition was calculated as below.
(§1) % inhibition=(1−(Reading(Sample)−Reading(Negative Control))/(Reading(Positive Control)−Reading(Negative Control)))×100%
The 0% inhibition value comes from the Reading of Positive Control wells having 0 nM compound. The 100% inhibition value comes from the Reading of Negative Control wells having no IRAK4 kinase.
(In ADP-Glo the light output rises with the ADP produced.)

The target of the next assay is T2, IRAK4 (Homo sapiens, UniProt Q9NWZ3).
T2 construct: host or cells: human PBMCs
T2 sequence (Q9NWZ3 1-460): T1 sequence (Q9NWZ3 1-460)
Nature of the assay: IRAK4 Human PBMC TNFα Cell Based Assay (AlphaLISA). Particulars: TNFα in culture medium. As to the method:
In this assay, serially diluted compounds were incubated with 1×10^4 human peripheral blood mononuclear cells (PBMCs) from STEMCELL (Cat #70025.1) per well of 384-well plate (Fisher Scientific; 50-905-2761) and cultured with TexMACS medium (Miltenyi, Cat #130-097-196), stimulated by R848 (0.5 μM) or IL-1β (10 ng/ml). Plates were covered with lids and incubated for 4 h (R848, Fisher Scientific, Cat #NC9801605) or 24 h (IL-1β, Fisher Scientific, Cat #ENRIL1BI) at 37° C. in a humidified tissue-culture incubator. After a brief centrifugation at 1000 rpm for 5 minutes, 5 μl of culture medium was used for the measurement of the TNFα amount using TNFα (human) AlphaLISA Detection Kit (PerkinElmer, Cat #AL208C) according to manufacturer's protocol. A biotinylated anti-TNFα antibody binds to the Streptavidin-coated Donor beads while another anti-TNFα antibody is conjugated to AlphaLISA Acceptor beads. In the presence of the TNFα, the beads come into close proximity. The excitation of the Donor beads causes the release of singlet oxygen molecules that triggers a cascade of energy transfer in the Acceptor beads, resulting in a sharp peak of light emission at 615 nm. AlphaLISA assay plates were read using PHERAstar. Percentage of inhibition was calculated as below:
as §1
The 0% inhibition value comes from the Reading of Positive Control wells having 0 nM compound. The 100% inhibition value comes from the Reading of Negative Control wells having no R848 or IL-1β.
(In Alpha technology, singlet oxygen from a donor bead excites a nearby acceptor bead.)

[2] abbreviates: human PBMCs stimulated by IL-1β (10 ng/ml), 24 h, read-out: IRAK4 PBMC AlphaLISA IL-1β (IC50).
Where [3] appears, read: human PBMCs stimulated by R848 (0.5 μM), 4 h, read-out: IRAK4 PBMC AlphaLISA R848 (IC50).

Structures are written as SMILES. Read-outs that look alike come from different tables or passages of the source.

As usually defined, the IC50 is the midpoint of a concentration-inhibition curve. Turning to `Brc1n[nH]c2nc(Nc3cnn(C4CCOCC4)c3)nc(N[C@H]3CC[C@H](N4CCOCC4)CC3)c12` [Example 1, 3-bromo-N^4-((1r,4r)-4-morpholinocyclohexyl)-N^6-(1-(tetrahydro-2H-pyran-4-yl)-1H-pyrazol-4-yl)-1H-pyrazolo[3,4-d]pyrimidine-4,6-diamine], the IC50 in assay [1] amounted to 4.2 nM; at IRAK4 (setting [2]), 16 nM; on IRAK4 (setting [3]), 35 nM. Also, the “IRAK4 Biochemical Assay Max Inhibition (%)” value in assay [1] was 100%.
For the compound `c1cncc(-c2n[nH]c3nc(Nc4cnn(C5CCOCC5)c4)nc(N[C@H]4CC[C@H](N5CCOCC5)CC4)c23)c1` [Example 2, N^4-((1r,4r)-4-morpholinocyclohexyl)-3-(pyridin-3-yl)-N^6-(1-(tetrahydro-2H-pyran-4-yl)-1H-pyrazol-4-yl)-1H-pyrazolo[3,4-d]pyrimidine-4,6-diamine], the IC50 in assay [1] is 8.2 nM; at IRAK4 (setting [2]), 25 nM; at IRAK4 (setting [3]), 24 nM. Further, the “IRAK4 Biochemical Assay Max Inhibition (%)” value in assay [1] was 100%.
Turning to `c1nn(C2CCOCC2)cc1Nc1nc(N[C@H]2CC[C@H](N3CCOCC3)CC2)c2c(-c3cn[nH]c3)n[nH]c2n1` [Example 3, N^4-((1r,4r)-4-morpholinocyclohexyl)-3-(1H-pyrazol-4-yl)-N^6-(1-(tetrahydro-2H-pyran-4-yl)-1H-pyrazol-4-yl)-1H-pyrazolo[3,4-d]pyrimidine-4,6-diamine], in assay [1], the IC50 came to 12 nM and the “IRAK4 Biochemical Assay Max Inhibition (%)” value turned out to be 109%.
Consider `c1ccc(-c2n[nH]c3nc(Nc4cnn(C5CCOCC5)c4)nc(N[C@H]4CC[C@H](N5CCOCC5)CC4)c23)cc1` [Example 5, N^4-((1r,4r)-4-morpholinocyclohexyl)-3-phenyl-N^6-(1-(tetrahydro-2H-pyran-4-yl)-1H-pyrazol-4-yl)-1H-pyrazolo[3,4-d]pyrimidine-4,6-diamine], for which the IC50 was 16 nM in assay [1], 56 nM on IRAK4 (setting [2]) and 63 nM on IRAK4 (setting [3]). Further, the “IRAK4 Biochemical Assay Max Inhibition (%)” value in assay [1] came to 100%.
On the same counts, the results for `Cc1cc(Nc2nc(N[C@H]3CC[C@H](N4CCOCC4)CC3)c3cn[nH]c3n2)sn1` [Example 6, N^6-(3-methylisothiazol-5-yl)-N^4-((1r,4r)-4-morpholinocyclohexyl)-1H-pyrazolo[3,4-d]pyrimidine-4,6-diamine] are 12 nM, 0.9 nM, 1.6 nM and 100%.
